Measured values reported in patent publication US20100172983A1 (priority 2001, published 2010).

Tests used:
intragastric pH = test: Emax model: esomeprazole AUC0-24 vs percent time intragastric pH>4.0 on Day 9 (Example 11); format: in vivo, human
[1] = in vivo; cited from earlier work
gastroduodenal mucosa = conditions: twice daily for five days
gastric pH = conditions: during the 8-10 hours following naproxen sodium dosing

With `COc1ccc2nc([S@@+]([O-])Cc3ncc(C)c(OC)c3C)[nH]c2c1` [esomeprazole] the “Emax, maximal effect: % of time with intragastric pH>4.0 over the daily interval at steady state” value (intragastric pH; Day 9) was 90.4% and the “AUC0-24 value required to achieve half (or 50%) of the maximal response (EC50)” value (intragastric pH; Day 9, plasma esomeprazole) was 713 ng·h/mL.

In the case of `CCc1cccc2c3c([nH]c12)C(CC)(CC(=O)O)OCC3` (stereo not drawn) [etodolac], the half-life [1] is listed as “about 7 hours”.

For `CC(C(=O)O)c1ccc(-c2ccccc2)c(F)c1` (stereo not drawn) [flurbiprofen], the half-life [1] is given as “about 6 hours”.

In the case of `O=C(c1ccccc1)c1ccc2n1CCC2C(=O)O` (stereo not drawn) [ketorolac], the half-life [1] is given as 8 to 9 h.

In the case of `Cc1cccc(Nc2ccccc2C(=O)O)c1C` [mefenamic acid], the half-life [1] is listed as “up to 4 hours”.

With `COc1ccc2cc([C@H](C)C(=O)O)ccc2c1` [naproxen sodium] the “patients presenting with gastroduodenal ulcers at the end of the study” value (gastroduodenal mucosa) was 33%, the “subjects with Lanza grade 3 or 4 damage” value (gastroduodenal mucosa; Day 5 endoscopy) was 100% and the “time the pH was greater than 4” value (gastric pH) was 4%.
